According to patent US12612360B2 (Sanofi, priority 2020, dated 2026):

Target: T1, ERα (Homo sapiens, UniProt P03372)
T1 construct: host or cells: MCF7
T1 sequence (P03372 1-595): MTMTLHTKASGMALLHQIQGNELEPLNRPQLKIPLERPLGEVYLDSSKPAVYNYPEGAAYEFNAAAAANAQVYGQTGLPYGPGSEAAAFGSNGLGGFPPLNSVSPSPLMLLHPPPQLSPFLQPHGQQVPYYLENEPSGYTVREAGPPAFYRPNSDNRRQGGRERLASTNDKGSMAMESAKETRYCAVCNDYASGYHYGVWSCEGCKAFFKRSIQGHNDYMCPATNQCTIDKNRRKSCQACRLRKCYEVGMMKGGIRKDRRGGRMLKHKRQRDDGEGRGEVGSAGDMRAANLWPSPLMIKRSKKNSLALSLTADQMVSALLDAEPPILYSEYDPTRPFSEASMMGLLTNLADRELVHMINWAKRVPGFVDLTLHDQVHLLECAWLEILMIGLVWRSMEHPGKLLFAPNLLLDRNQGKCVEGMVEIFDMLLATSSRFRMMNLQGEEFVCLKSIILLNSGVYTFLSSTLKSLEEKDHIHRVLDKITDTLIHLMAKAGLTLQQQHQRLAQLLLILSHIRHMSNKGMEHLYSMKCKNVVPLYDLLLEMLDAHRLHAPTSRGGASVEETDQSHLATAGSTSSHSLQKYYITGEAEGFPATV
Assay: Estrogen receptor degradation activity: breast cancer cell ERα in cell western assay (MCF7 cells)
Assay type: cell-based
Conditions: for % Degradation At 0.3 μM: 4 hours, relative to fulvestrant 0.1 μM positive control; for DC50: 4 hours post compound addition, concentration which degrades 50% of the estrogen receptor, read-out: Degradation IC50
Procedure, shortened: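 In-cell western readout: ERα immunofluorescence (Alexa 488) normalised to DNA signal (Syto-64) after formalin fixation. Compounds dosed for 4 h on MCF7 cells in stripped-serum, phenol-red-free medium over nine 1:5 steps, 0.3 to […] final; fulvestrant 0.1 μM control. IC50 in nM for 50% ERα degradation.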

| Compound | % Degradation At 0.3 μM [%] | DC50 [nM] |
| --- | --- | --- |
| Cc1cc(F)ccc1C1=C(c2ccc(C=C3CN(CCCF)C3)c(C(F)(F)F)c2)c2ccc(C(=O)O)cc2CCC1 [Example 157, 8-(4-fluoro-2-methylphenyl)-9-(4-((1-(3-fluoropropyl)azetidin-3-ylidene)methyl)-3-(trifluoromethyl)phenyl)-6,7-dihydro-5H-benzo[7]annulene-3-carboxylic acid] | 88 | 3.1 |
| O=C(O)c1ccc2c(c1)CCCC(c1ccc(F)c(C(F)(F)F)c1)=C2c1ccc(C=C2CN(CCCF)C2)cc1 [Example 154, 8-(4-fluoro-3-(trifluoromethyl)phenyl)-9-(4-((1-(3-fluoropropyl)azetidin-3-ylidene)methyl)phenyl)-6,7-dihydro-5H-benzo[7]annulene-3-carboxylic acid] | 92 | 0.4 |
| Cc1ccc(C2=C(c3ccc(C=C4CN(CCCF)C4)cc3)c3ccc(C(=O)O)cc3CCC2)c(C)c1 [Example 77, 8-(2,4-dimethylphenyl)-9-(4-((1-(3-fluoropropyl)azetidin-3-ylidene)methyl)phenyl)-6,7-dihydro-5H-benzo[7]annulene-3-carboxylic acid] | 92 | 0.4 |
| O=C(O)c1ccc2c(c1)CCCC(c1cccc(Cl)c1C(F)(F)F)=C2c1ccc(C=C2CN(CCCF)C2)cc1 [Example 23, 8-(3-chloro-2-(trifluoromethyl)phenyl)-9-(4-((1-(3-fluoropropyl)azetidin-3-ylidene)methyl)phenyl)-6,7-dihydro-5H-benzo[7]annulene-3-carboxylic acid] | 96 | 0.4 |
| O=C(O)c1ccc2c(c1)CCCC(c1cccc(Cl)c1C(F)(F)F)=C2c1ccc(C=C2CN(CCC(F)F)C2)cc1 [Example 13, 8-(3-chloro-2-(trifluoromethyl)phenyl)-9-(4-((1-(3,3-difluoropropyl)azetidin-3-ylidene)methyl)phenyl)-6,7-dihydro-5H-benzo[7]annulene-3-carboxylic acid] | 89 | 0.5 |
| O=C(O)c1ccc2c(c1)CCCC(c1ccc(F)cc1F)=C2c1cc(F)c(C=C2CN(CCCF)C2)c(F)c1 [Example 59, 9-(3,5-difluoro-4-((1-(3-fluoropropyl)azetidin-3-ylidene)methyl)phenyl)-8-(2,4-difluorophenyl)-6,7-dihydro-5H-benzo[7]annulene-3-carboxylic acid] | 93 | 0.4 |
| COc1cc(C2=C(c3ccc(C=C4CN(CCCF)C4)cc3)c3ccc(C(=O)O)cc3CCC2)c(F)cn1 [Example 156, 8-(5-fluoro-2-methoxypyridin-4-yl)-9-(4-((1-(3-fluoropropyl)azetidin-3-ylidene)methyl)phenyl)-6,7-dihydro-5H-benzo[7]annulene-3-carboxylic acid] | 89 | 0.6 |
| Cc1cc(F)ccc1C1=C(c2cc(F)c(C=C3CN(CCCF)C3)c(F)c2)c2ccc(C(=O)O)cc2CCC1 [Example 36, 9-(3,5-difluoro-4-((1-(3-fluoropropyl)azetidin-3-ylidene)methyl)phenyl)-8-(4-fluoro-2-methylphenyl)-6,7-dihydro-5H-benzo[7]annulene-3-carboxylic acid] | 89 | 0.4 |
| Cc1cc(F)ccc1C1=C(c2ccc(C=C3CN(CCCF)C3)c(C)c2F)c2ccc(C(=O)O)cc2CCC1 [Example 67, 8-(4-fluoro-2-methylphenyl)-9-(2-fluoro-4-((1-(3-fluoropropyl)azetidin-3-ylidene)methyl)-3-methylphenyl)-6,7-dihydro-5H-benzo[7]annulene-3-carboxylic acid] | 99 | 0.5 |
| Cc1cc(C=C2CN(CCCF)C2)cc(F)c1C1=C(c2ccc(F)cc2F)CCCc2cc(C(=O)O)ccc21 [Example 31, 8-(2,4-difluorophenyl)-9-(2-fluoro-4-((1-(3-fluoropropyl)azetidin-3-ylidene)methyl)-6-methylphenyl)-6,7-dihydro-5H-benzo[7]annulene-3-carboxylic acid] | 92 | 0.8 |
| CC1CCC(C2=C(c3ncc(C=C4CN(CCCF)C4)cc3F)c3ccc(C(=O)O)cc3CCC2)CC1 (mixture of isomers) [Example 188, 9-(3-fluoro-5-((1-(3-fluoropropyl)azetidin-3-ylidene)methyl)pyridin-2-yl)-8-(4-methylcyclohexyl)-6,7-dihydro-5H-benzo[7]annulene-3-carboxylic acid] | 89 | 1.8 |
| Cc1c(C2=C(c3ccc(C=C4CN(CCC(F)(F)F)C4)cc3)c3ccc(C(=O)O)cc3CCC2)ccc(Cl)c1F [Example 111, 8-(4-chloro-3-fluoro-2-methylphenyl)-9-(4-((1-(3,3,3-trifluoropropyl)azetidin-3-ylidene)methyl)phenyl)-6,7-dihydro-5H-benzo[7]annulene-3-carboxylic acid] | 90 | 1 |
| Cc1cc(Cl)ccc1C1=C(c2ccc(C=C3CN(CCC(F)F)C3)cc2)c2ccc(C(=O)O)cc2CCC1 [Example 132, 8-(4-chloro-2-methylphenyl)-9-(4-((1-(3,3-difluoropropyl)azetidin-3-ylidene)methyl)phenyl)-6,7-dihydro-5H-benzo[7]annulene-3-carboxylic acid] | 95 | 0.8 |
| O=C(O)c1ccc2c(c1)CCCC(c1c(F)ccc3c1CCC3)=C2c1ccc(C=C2CN(CCC(F)F)C2)cc1 [Example 160, 9-(4-((1-(3,3-difluoropropyl)azetidin-3-ylidene)methyl)phenyl)-8-(5-fluoro-2,3-dihydro-1H-inden-4-yl)-6,7-dihydro-5H-benzo[7]annulene-3-carboxylic acid] | 93 | 0.6 |
| O=C(O)c1ccc2c(c1)CCCC(c1ccc(F)c(C(F)(F)F)c1F)=C2c1ccc(C=C2CN(CCCF)C2)cc1 [Example 124, 8-(2,4-difluoro-3-(trifluoromethyl)phenyl)-9-(4-((1-(3-fluoropropyl)azetidin-3-ylidene)methyl)phenyl)-6,7-dihydro-5H-benzo[7]annulene-3-carboxylic acid] | 93 | 1.2 |

These reach a lower DC50. Values come first.

| % Degradation At 0.3 μM [%] | DC50 [nM] | Compound |
| --- | --- | --- |
| 96 | 0.3 | Cc1cc(F)ccc1C1=C(c2c(F)cc(C=C3CN(CCCF)C3)cc2F)c2ccc(C(=O)O)cc2CCC1 [Example 68] |
| 98 | 0.3 | O=C(O)c1ccc2c(c1)CCCC(c1ccc(C(F)(F)F)cc1F)=C2c1ccc(C=C2CN(CCCF)C2)cc1 [Example 49, 8-(2-fluoro-4-(trifluoromethyl)phenyl)-9-(4-((1-(3-fluoropropyl)azetidin-3-ylidene)methyl)phenyl)-6,7-dihydro-5H-benzo[7]annulene-3-carboxylic acid] |
| 87 | 0.3 | O=C(O)c1ccc2c(c1)CCCC(c1ccc(F)cc1C1CC1)=C2c1ccc(C=C2CN(CCCF)C2)cc1 [Example 40, 8-(2-cyclopropyl-4-fluorophenyl)-9-(4-((1-(3-fluoropropyl)azetidin-3-ylidene)methyl)phenyl)-6,7-dihydro-5H-benzo[7]annulene-3-carboxylic acid] |
| 98 | 0.2 | Cc1cc(Cl)ccc1C1=C(c2ccc(C=C3CN(CCCF)C3)cc2)c2ccc(C(=O)O)cc2CCC1 [Example 89, 8-(4-chloro-2-methylphenyl)-9-(4-((1-(3-fluoropropyl)azetidin-3-ylidene)methyl)phenyl)-6,7-dihydro-5H-benzo[7]annulene-3-carboxylic acid] |
| 92 | 0.2 | Cl.O=C(O)c1ccc2c(c1)CCCC(c1ccc(Cl)cc1Cl)=C2c1ccc(C=C2CN(CCCF)C2)c(F)c1 [Example 103, 8-(2,4-dichlorophenyl)-9-(3-fluoro-4-((1-(3-fluoropropyl)azetidin-3-ylidene)methyl)phenyl)-6,7-dihydro-5H-benzo[7]annulene-3-carboxylic acid hydrochloride] |
| 95 | 0.2 | O=C(O)c1ccc2c(c1)CCCC(c1cccc(F)c1C(F)(F)F)=C2c1ccc(C=C2CN(CCCF)C2)cc1 [Example 24, 8-(3-fluoro-2-(trifluoromethyl)phenyl)-9-(4-((1-(3-fluoropropyl)azetidin-3-ylidene)methyl)phenyl)-6,7-dihydro-5H-benzo[7]annulene-3-carboxylic acid] |
| 94 | 0.2 | O=C(O)c1ccc2c(c1)CCCC(c1ccc(F)cc1C(F)(F)F)=C2c1ccc(C=C2CN(CCCF)C2)cc1 [Example 95, 8-(4-fluoro-2-(trifluoromethyl)phenyl)-9-(4-((1-(3-fluoropropyl)azetidin-3-ylidene)methyl)phenyl)-6,7-dihydro-5H-benzo[7]annulene-3-carboxylic acid] |
